“And” between values parts separate entries of the source, which are not always exact repeats. Identical values can stand only once.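 Each compound was tested at five concentrations against cells in 96-well plates for 48 hours. Here, GI50 denotes the concentration required for 50% inhibition of growth.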 The source made the active and inactive calls. Cut-off read from the data, not from the text of the source: active = GI50 up to about 1.1 µM and inactive = higher. Where only a bound is given, the exact number is not on record here.

What all share (assay): growth of human tumour cells (NCI), 48 h
Test [1] relates to U-251.
Test [2] concerns UACC-257.
Test [3] deals with K562.
Test [4] relates to OVCAR-4.
Test [5] has as its system HOP-92.
Test [6] relates to NCI-H522.
The subject of test [7] is MCF7.
For test [8], the system named is HT-29.
Test [9] concerns SN12C.
Test [10] relates to SNB-19.
Test [11] deals with ACHN.
The subject of test [12] is HCT-116.
Test [13] deals with SK-MEL-5.
Test [14] deals with SK-MEL-28.
Test [15] relates to NCI-H226.
The subject of test [16] is SF-268.
Test [17] concerns M14.
Test [18] deals with Malme-3M.
Test [19] relates to NCI-H23.
The test system of test [20] is SR.

As for `CN(CCCCN(C)CCc1ccc(Cl)c(Cl)c1)CCCCN1CCCC1`, the GI50 in [1] is 0.745 µM (active); in [2], 1.63 µM (inactive); in test [3], 0.877 µM (active); in test [4], 1.83 µM (inactive); in [5] it was 1.26 µM (inactive); in test [6], 0.977 µM (active). Besides, the GI50 was 1.46 µM (inactive) in test [7]; 0.494 µM (active) in test [8]; 1.98 µM (inactive) in test [9]; 2.26 µM (inactive) in test [10]; 1.91 µM (inactive) in test [11]; 1.51 µM (inactive) in [12]. The GI50 in test [13] is 0.902 µM (active); in test [14], 0.533 µM (active); in test [15], 2.26 µM (inactive); in [16], 1.46 µM (inactive); in test [17], 0.787 µM (active); in test [18], 1.91 µM (inactive). For the same compound, in [19], the GI50 is 1.71 µM (inactive).
With `Cc1c(S(=O)(=O)N/C(=N\O)Nc2ccc(Cl)c(Cl)c2)sc2ccc(Cl)cc12`, the GI50 in test [1] was 21.3 µM (inactive); in [2], 19.9 µM (inactive); in [3], 29.5 µM (inactive); in test [4], 15.1 µM (inactive); in test [5] it was 22.2 µM (inactive); in test [6], 15.9 µM (inactive). Further, the GI50 in test [7] is 24.9 µM (inactive); in test [8], 14.4 µM (inactive); in test [9], 18.7 µM (inactive); in test [10], 19.1 µM (inactive); in test [11], 12.1 µM (inactive); in [12], 17.8 µM (inactive). The GI50 was 15.1 µM (inactive) in test [13]; 21.4 µM (inactive) in test [14]; 20.9 µM (inactive) in test [15]; 24.8 µM (inactive) in test [16]; 21.5 µM (inactive) in test [17]; 20.7 µM (inactive) in test [18]. Besides, the GI50 in test [19] was 17.8 µM (inactive).
For the compound `COc1cc2c3c(n(C)c(=O)c2cc1OC)-c1cc2c(cc1/C3=C\CCCI)OCO2`, the GI50 in [1] was 4.21 µM (inactive); in [2], > 100 µM (inactive); in [3], 2.07 µM (inactive); in [6], 6.75 µM (inactive); in test [7], 2.91 µM (inactive); in test [8], 20.4 µM (inactive). The GI50 in [20] is 0.239 µM (active); in test [9] it was 8.75 µM (inactive); in test [10], 13.7 µM (inactive); in test [11] it was 0.531 µM (active); in test [12] it was 1.47 µM (inactive); in [13], 10.4 µM (inactive). The GI50 in test [15] was 1.34 µM (inactive); in test [16], 0.776 µM (active); in [17], 2.61 µM (inactive); in test [18], 2.23 µM (inactive); in [19], 12.2 µM (inactive).
Turning to `CCCCCCCCCCCCCCCCOCC(CCl)OP(=O)(O)OP(=O)(O)OCC1OC(n2ccc(N)nc2=O)C(O)C1O` (configuration not stated), the GI50 in test [1], in test [2], in [3], in test [4], in test [5] and in [6] was > 100 µM (inactive) throughout. Also, the GI50 in test [7], in test [8], in test [9], in [10], in test [11] and in [12] was > 100 µM (inactive) in each case. Moreover, the GI50 in [13] is > 100 µM (inactive); in [14] it was 99.3 µM (inactive); in test [15] it was > 100 µM (inactive); in test [16], > 100 µM (inactive); in [17] it was > 100 µM (inactive); in test [18] it was > 100 µM (inactive). Besides, the GI50 in [19] is > 100 µM (inactive).
For the compound `O=C1CC(C(OCc2ccccc2)C(OCc2ccccc2)C(COCc2ccccc2)OCc2ccccc2)CC(=O)N1` (configuration not stated), the GI50 is > 100 µM (inactive) in test [2]; > 75 µM (inactive) in test [4]; > 100 µM (inactive) and 51.9 µM (inactive) in [7]; > 75 µM (inactive) in test [8]; > 75 µM (inactive) in test [20]; > 75 µM (inactive) in test [9]. Further, the GI50 in test [10] is > 75 µM (inactive); in test [11], > 75 µM (inactive); in test [12] it was > 75 µM (inactive); in test [13], > 75 µM (inactive); in test [14], > 75 µM (inactive); in test [15] it was > 100 µM (inactive). For the same compound, the GI50 in test [16] was > 75 µM (inactive); in [17] it was > 75 µM (inactive); in test [18], > 100 µM (inactive); in test [19], > 75 µM (inactive).
As for `CCOC(=O)c1cc(=O)c2ccnc3c2n1CCS3`, the GI50 in [1] was 43.9 µM (inactive); in test [2], 51.6 µM (inactive); in test [5], 66.4 µM (inactive); in test [6], 22.7 µM (inactive); in [7], > 100 µM (inactive); in [8], > 100 µM (inactive). For the same compound, the GI50 in [9] was > 100 µM (inactive); in test [10] it was 50.2 µM (inactive); in test [11] it was > 100 µM (inactive); in test [12], > 100 µM (inactive); in test [13] it was > 100 µM (inactive); in [14], > 100 µM (inactive). Further, the GI50 in [15] was > 100 µM (inactive); in test [16], > 100 µM (inactive); in [17], > 100 µM (inactive); in test [19] it was 32.1 µM (inactive).
Regarding `CCCCSC1=N/C(=C\c2ccccc2O)C(Cl)=N1`, the GI50 in [1], in test [2], in test [4], in test [5], in test [6] and in test [7] was > 100 µM (inactive) each time. Also, the GI50 in test [8], in test [9], in test [10], in [11], in [12] and in [14] was > 100 µM (inactive) in each case. For the same compound, the GI50 in test [15], in test [16], in test [17], in test [18] and in [19] was > 100 µM (inactive) throughout.
Regarding `CNC(C#N)c1ccc(OC)cc1` (configuration not stated), the GI50 in test [1] is 53.3 µM (inactive); in test [2], 54.8 µM (inactive); in test [3], 34.1 µM (inactive); in test [4], > 100 µM (inactive); in test [5] it was 92.5 µM (inactive); in [6], 75.5 µM (inactive). The GI50 is > 100 µM (inactive) in test [7]; 61.1 µM (inactive) in [8]; > 100 µM (inactive) in test [9]; > 100 µM (inactive) in test [10]; > 100 µM (inactive) in [11]; 57 µM (inactive) in test [12]. Further, the GI50 is 25.8 µM (inactive) in test [13]; > 100 µM (inactive) in [14]; > 100 µM (inactive) in [15]; > 100 µM (inactive) in test [16]; > 100 µM (inactive) in test [17]; > 100 µM (inactive) in [18]. In test [19], the GI50 was > 100 µM (inactive).
As to `Nc1ccc(-c2nc3cc(F)ccc3s2)cc1CO`, the GI50 is 16.4 µM (inactive) in test [1]; > 69.3 µM (inactive) in test [2]; > 100 µM (inactive) in [3]; > 100 µM (inactive) in test [4]; 17.3 µM (inactive) in [5]; 41.7 µM (inactive) in [6]. Further, the GI50 in [7] is < 0.01 µM (active); in test [8], > 100 µM (inactive); in test [9], 32.7 µM (inactive); in test [10], 27.1 µM (inactive); in test [11] it was 25.3 µM (inactive); in [12], 53.6 µM (inactive). Further, the GI50 in test [13] was > 96.8 µM (inactive); in [14], > 100 µM (inactive); in [15], 0.0219 µM (active); in test [16] it was 23.8 µM (inactive); in test [17], > 49.5 µM (inactive); in [18], > 72.3 µM (inactive). Moreover, the GI50 in test [19] was 0.436 µM (active).
Turning to `Cc1[nH]c2ncn3[nH]c(=S)nc3c2c1Cc1ccccc1`, the GI50 is > 100 µM (inactive) in [1]; > 100 µM (inactive) in test [2]; > 100 µM (inactive) in test [4]; > 100 µM (inactive) in test [5]; 72.4 µM (inactive) in [6]; 52.6 µM (inactive) in test [7]. Besides, the GI50 in test [8], in [9], in test [10], in [11], in test [12] and in test [13] was > 100 µM (inactive) in each case. Moreover, the GI50 in [14], in test [15], in test [16], in test [17], in [18] and in [19] was > 100 µM (inactive) each time.
For `Cc1c2ccccc2c(C)n2c1nc1ccccc12`, the GI50 in test [1] was 5.6 µM (inactive); in test [2], 14.2 µM (inactive); in test [3] it was 4.1 µM (inactive); in test [5] it was 12.2 µM (inactive); in test [7] it was 2.24 µM (inactive); in test [8] it was 5.11 µM (inactive). The GI50 in [20] was 6.5 µM (inactive); in test [9], 5.2 µM (inactive); in test [10], 9.71 µM (inactive); in test [11], 4.06 µM (inactive); in [12] it was 4.65 µM (inactive); in test [13], 4.44 µM (inactive). Further, the GI50 in [14] is 7.85 µM (inactive); in test [15], 11.6 µM (inactive); in test [16], 9.89 µM (inactive); in test [17], 9.35 µM (inactive); in test [18], 8.69 µM (inactive); in test [19] it was 6.93 µM (inactive).

For the origin of these results see ChEMBL document CHEMBL1201862, “PubChem BioAssay data set” (2004).
